These results are taken from patent US20220142948A1, “COMPOSITIONS AND METHODS FOR MODULATING METABOLIC REGULATORS OF T CELL PATHOGENICITY” (The Broad Institute, Inc., priority 2019, published 2022).

Entries after “also recorded” stand apart in the source; their conditions may differ.

The assay relates to experimental autoimmune encephalomyelitis (EAE). Description: Adoptive transfer EAE with 2D2 TCR-transgenic Th17 cells differentiated in the presence of inhibitor. The class given is in vivo, mouse. The text has this: For adoptive transfer EAE, naïve 2D2 transgenic T cells were sorted and differentiated into Th17n cells+/−EGCG or Th17p+/−DHEA as described for three days followed by a resting phase in the presence of IL-23 alone for 2 days. Cells were then harvested and restimulated with plate-bound anti-CD3 and anti-CD28 for 2 days prior to transfer. 2-8 million cells were transferred per mouse intravenously.
For adoptive transfer EAE, naive T cells (CD4+CD44-CD62L+CD25-) were isolated from 2D2 TCR-transgenic mice and activated with anti-CD3 ([…]) and anti-CD28 ([…]) in the presence of differentiation cytokines for 68h. Cells were rested for 2 days and restimulated with plate-bound anti-CD3 (0.5 mg/ml for pathogenic condition; […] for non-pathogenic condition) and anti-CD28 ([…]) for 2 days prior to transfer. Equal number (2 to 8 million) cells were transferred per mouse intravenously.

Take epigallocatechin-3-gallate [EGCG]: the “optic neuritis/perineuritis in host mice” value (EGCG on Th17n, DHEA on Th17p) is listed as “promoted”. For the same substance, under “Th17n cells with IL-23 in differentiation culture, vs IL-23+solvent”, the EAE severity result is recorded as “significantly more severe EAE”. For the same substance, for the setting “Th17n transfer”, the “number of CNS lesions (meninges and parenchyma)” value was “increased number of CNS lesions”. Also, the “Wallerian degeneration in proximal spinal nerve roots” value (mouse, in vivo) is reported as “only experimental group to produce Wallerian degeneration; also recorded: induce Wallerian degeneration; also recorded: greater”. Besides, the EAE incidence rate (recipients of EGCG-treated Th17n cells, control group 0/12) is listed as 10/12. The meningeal inflammation entry (vs. Control mice) is listed as “greater meningeal inflammation”.
